Experiments:
Assay in all cases: radiometric filter-binding kinase assay
[1] = tested on: AKT2 (human), P31751 [S474D]; conditions: compound 100.0 µM; ATP 50 µM
AURKB (human) = AURKB (human) (UniProt Q96GD4); conditions: compound 100.0 µM; ATP 20 µM
CLK2 (human) = CLK2 (human) (UniProt P49760); conditions: compound 100.0 µM; ATP 5 µM
CSK (human) = CSK (human) (UniProt P41240); conditions: compound 100.0 µM; ATP 20 µM
EEF2K (human) = EEF2K (human) (UniProt O00418); conditions: compound 100.0 µM; ATP 5 µM
Chain of EEF2K (human) (O00418 whole entry, looked up): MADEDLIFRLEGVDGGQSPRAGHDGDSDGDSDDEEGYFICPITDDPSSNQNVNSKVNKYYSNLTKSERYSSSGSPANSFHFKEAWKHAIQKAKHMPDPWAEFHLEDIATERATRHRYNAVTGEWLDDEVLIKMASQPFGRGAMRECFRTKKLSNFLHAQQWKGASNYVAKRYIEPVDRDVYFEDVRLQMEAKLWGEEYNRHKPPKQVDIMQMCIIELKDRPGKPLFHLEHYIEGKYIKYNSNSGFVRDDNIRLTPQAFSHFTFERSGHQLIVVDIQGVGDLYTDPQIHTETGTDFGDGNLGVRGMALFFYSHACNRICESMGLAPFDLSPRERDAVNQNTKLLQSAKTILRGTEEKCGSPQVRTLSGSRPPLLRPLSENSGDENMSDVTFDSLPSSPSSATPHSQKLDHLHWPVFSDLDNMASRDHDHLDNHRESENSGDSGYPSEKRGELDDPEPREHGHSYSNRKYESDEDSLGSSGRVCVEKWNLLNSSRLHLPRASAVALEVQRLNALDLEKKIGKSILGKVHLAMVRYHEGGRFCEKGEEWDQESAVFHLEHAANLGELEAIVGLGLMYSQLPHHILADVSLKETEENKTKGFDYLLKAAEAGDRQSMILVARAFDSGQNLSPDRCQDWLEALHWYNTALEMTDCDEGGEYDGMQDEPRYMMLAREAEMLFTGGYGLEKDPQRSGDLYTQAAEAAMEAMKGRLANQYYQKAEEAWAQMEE

EPHA2 (human) = EPHA2 (human) (UniProt P29317); conditions: compound 100.0 µM; ATP 50 µM
EPHB2 (human) = EPHB2 (human) (UniProt P29323); conditions: compound 100.0 µM; ATP 20 µM
EPHB3 (human) = EPHB3 (human) (UniProt P54753); conditions: compound 100.0 µM; ATP 20 µM
EPHB4 (human) = EPHB4 (human) (UniProt P54760); conditions: compound 100.0 µM; ATP 5 µM
FGFR1 (human) = FGFR1 (human) (UniProt P11362); conditions: compound 100.0 µM; ATP 20 µM
FLT1 (human) = FLT1 (human) (UniProt P17948); conditions: compound 100.0 µM; ATP 20 µM
HIPK2 (human) = HIPK2 (human) (UniProt Q9H2X6); conditions: compound 100.0 µM; ATP 5 µM
HIPK3 (human) = HIPK3 (human) (UniProt Q9H422); conditions: compound 100.0 µM; ATP 20 µM
IGF1R (human) = IGF1R (human) (UniProt P08069); conditions: compound 100.0 µM; ATP 5 µM
IKBKE (human) = IKBKE (human) (UniProt Q14164); conditions: compound 100.0 µM; ATP 50 µM
MAP3K11 (human) = MAP3K11 (human) (UniProt Q16584); conditions: compound 100.0 µM; ATP 20 µM
MAPK1 (human) = MAPK1 (human) (UniProt P28482); conditions: compound 100.0 µM; ATP 20 µM
Chain of MAPK1 (human) (P28482 whole entry, looked up): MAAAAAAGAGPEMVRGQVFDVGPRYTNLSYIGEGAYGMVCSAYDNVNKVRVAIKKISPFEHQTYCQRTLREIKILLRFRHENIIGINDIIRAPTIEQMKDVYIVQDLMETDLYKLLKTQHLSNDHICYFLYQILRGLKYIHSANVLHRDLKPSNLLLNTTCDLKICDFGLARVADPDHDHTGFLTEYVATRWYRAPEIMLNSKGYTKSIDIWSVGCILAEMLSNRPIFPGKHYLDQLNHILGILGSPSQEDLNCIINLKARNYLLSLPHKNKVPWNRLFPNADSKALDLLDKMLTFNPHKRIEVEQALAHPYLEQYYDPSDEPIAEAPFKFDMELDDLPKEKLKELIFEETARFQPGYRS

MAPK10 (human) = MAPK10 (human) (UniProt P53779); conditions: compound 100.0 µM; ATP 20 µM
MAPK11 (human) = MAPK11 (human) (UniProt Q15759); conditions: compound 100.0 µM; ATP 20 µM
MAPK12 (human) = MAPK12 (human) (UniProt P53778); conditions: compound 100.0 µM; ATP 5 µM
Chain of MAPK12 (human) (P53778 whole entry, looked up): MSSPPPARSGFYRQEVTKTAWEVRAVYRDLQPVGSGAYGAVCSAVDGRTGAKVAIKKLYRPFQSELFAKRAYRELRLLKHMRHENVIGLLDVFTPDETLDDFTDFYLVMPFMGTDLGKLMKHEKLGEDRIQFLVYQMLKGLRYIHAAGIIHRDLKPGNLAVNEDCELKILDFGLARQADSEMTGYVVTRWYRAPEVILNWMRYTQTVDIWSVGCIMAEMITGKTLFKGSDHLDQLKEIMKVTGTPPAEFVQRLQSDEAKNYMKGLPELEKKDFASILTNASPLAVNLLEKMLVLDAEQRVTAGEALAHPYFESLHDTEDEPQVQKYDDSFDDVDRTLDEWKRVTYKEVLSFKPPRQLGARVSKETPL

MAPK3 (human) = MAPK3 (human) (UniProt P27361); conditions: compound 100.0 µM; ATP 5 µM
MAPK8 (human) = MAPK8 (human) (UniProt P45983); conditions: compound 100.0 µM; ATP 20 µM
Chain of MAPK8 (human) (P45983 whole entry, looked up): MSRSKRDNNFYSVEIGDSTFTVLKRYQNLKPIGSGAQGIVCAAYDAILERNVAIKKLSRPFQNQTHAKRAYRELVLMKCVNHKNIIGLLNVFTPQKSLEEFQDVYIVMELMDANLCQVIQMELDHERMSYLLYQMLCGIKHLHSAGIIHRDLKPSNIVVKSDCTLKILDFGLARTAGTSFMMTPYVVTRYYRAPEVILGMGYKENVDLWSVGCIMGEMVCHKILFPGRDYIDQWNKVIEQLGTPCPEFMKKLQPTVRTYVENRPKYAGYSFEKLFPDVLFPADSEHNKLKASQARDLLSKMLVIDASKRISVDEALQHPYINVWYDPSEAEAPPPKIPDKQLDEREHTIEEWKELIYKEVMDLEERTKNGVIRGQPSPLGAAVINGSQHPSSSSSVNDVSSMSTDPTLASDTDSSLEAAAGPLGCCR

MARK2 (human) = MARK2 (human) (UniProt Q7KZI7); conditions: compound 100.0 µM; ATP 20 µM
Chain of MARK2 (human) (Q7KZI7 whole entry, looked up): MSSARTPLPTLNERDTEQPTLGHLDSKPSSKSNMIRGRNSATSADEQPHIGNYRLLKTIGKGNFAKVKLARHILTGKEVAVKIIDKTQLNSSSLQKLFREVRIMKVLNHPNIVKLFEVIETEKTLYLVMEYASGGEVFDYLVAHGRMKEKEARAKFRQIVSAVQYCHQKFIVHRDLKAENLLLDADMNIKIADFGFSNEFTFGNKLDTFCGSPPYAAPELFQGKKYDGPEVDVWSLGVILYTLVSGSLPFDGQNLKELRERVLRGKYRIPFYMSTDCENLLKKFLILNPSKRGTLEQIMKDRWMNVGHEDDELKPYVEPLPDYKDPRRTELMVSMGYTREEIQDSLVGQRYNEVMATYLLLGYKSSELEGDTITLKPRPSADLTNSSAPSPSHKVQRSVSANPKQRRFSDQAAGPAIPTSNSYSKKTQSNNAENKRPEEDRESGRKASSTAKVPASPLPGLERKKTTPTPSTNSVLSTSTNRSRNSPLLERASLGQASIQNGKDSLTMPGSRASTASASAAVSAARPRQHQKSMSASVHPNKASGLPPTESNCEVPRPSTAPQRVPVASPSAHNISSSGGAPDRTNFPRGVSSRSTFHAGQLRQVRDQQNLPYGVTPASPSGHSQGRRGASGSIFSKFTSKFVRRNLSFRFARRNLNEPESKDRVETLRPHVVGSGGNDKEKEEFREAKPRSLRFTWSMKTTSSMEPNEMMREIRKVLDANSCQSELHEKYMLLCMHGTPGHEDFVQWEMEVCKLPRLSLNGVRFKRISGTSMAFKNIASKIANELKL

MARK3 (human) = MARK3 (human) (UniProt P27448); conditions: compound 100.0 µM; ATP 5 µM
MARK4 (human) = MARK4 (human) (UniProt Q96L34); conditions: compound 100.0 µM; ATP 50 µM
MELK (human) = MELK (human) (UniProt Q14680); conditions: compound 100.0 µM; ATP 50 µM
MINK1 (human) = MINK1 (human) (UniProt Q8N4C8); conditions: compound 100.0 µM; ATP 50 µM
MST4 (human) = MST4 (human) (UniProt Q9P289); conditions: compound 100.0 µM; ATP 20 µM
Chain of MST4 (human) (Q9P289 whole entry, looked up): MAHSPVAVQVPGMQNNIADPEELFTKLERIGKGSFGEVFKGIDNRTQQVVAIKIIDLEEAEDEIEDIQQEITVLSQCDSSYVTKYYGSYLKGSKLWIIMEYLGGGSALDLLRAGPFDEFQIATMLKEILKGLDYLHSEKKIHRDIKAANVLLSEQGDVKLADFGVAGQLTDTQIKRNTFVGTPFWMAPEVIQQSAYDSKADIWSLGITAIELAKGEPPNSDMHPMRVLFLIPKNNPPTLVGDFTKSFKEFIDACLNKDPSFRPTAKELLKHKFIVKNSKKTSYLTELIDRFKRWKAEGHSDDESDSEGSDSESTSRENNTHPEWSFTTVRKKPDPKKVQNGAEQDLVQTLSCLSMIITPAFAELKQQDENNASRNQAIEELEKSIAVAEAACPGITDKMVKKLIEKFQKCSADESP

MYLK (human) = MYLK (human) (UniProt Q15746); conditions: compound 100.0 µM; ATP 50 µM
PHKG1 (human) = PHKG1 (human) (UniProt Q16816); conditions: compound 100.0 µM; ATP 50 µM
PRKCA (human) = PRKCA (human) (UniProt P17252); conditions: compound 100.0 µM; ATP 20 µM
PTK6 (human) = PTK6 (human) (UniProt Q13882); conditions: compound 100.0 µM; ATP 20 µM
Chain of PTK6 (human) (Q13882 whole entry, looked up): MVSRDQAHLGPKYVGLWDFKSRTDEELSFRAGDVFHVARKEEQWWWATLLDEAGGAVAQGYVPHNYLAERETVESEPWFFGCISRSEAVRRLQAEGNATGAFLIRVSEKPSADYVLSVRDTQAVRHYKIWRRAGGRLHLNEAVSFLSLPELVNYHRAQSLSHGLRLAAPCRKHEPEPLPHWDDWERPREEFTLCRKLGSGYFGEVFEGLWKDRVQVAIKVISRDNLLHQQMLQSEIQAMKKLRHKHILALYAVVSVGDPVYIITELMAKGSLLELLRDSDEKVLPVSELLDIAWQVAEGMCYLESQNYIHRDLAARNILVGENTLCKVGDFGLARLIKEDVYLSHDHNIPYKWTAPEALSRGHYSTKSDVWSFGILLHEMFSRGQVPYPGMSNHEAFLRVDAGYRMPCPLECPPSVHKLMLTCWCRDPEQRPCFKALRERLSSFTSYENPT

RPS6KA1 KD1 KD2 (human) = RPS6KA1 KD1 KD2 (human) (UniProt Q15418); conditions: compound 100.0 µM; ATP 50 µM
[2] = tested on: SGK1 (human), O00141 [S422D]; conditions: compound 100.0 µM; ATP 20 µM
SRPK1 (human) = SRPK1 (human) (UniProt Q96SB4); conditions: compound 100.0 µM; ATP 50 µM
[3] = target: STK11 CAB39 STRADA (human) (UniProt Q9Y376+Q7RTN6+Q15831); conditions: compound 100.0 µM; ATP 20 µM
Chain of STK11 CAB39 STRADA (human) (Q15831 whole entry, looked up): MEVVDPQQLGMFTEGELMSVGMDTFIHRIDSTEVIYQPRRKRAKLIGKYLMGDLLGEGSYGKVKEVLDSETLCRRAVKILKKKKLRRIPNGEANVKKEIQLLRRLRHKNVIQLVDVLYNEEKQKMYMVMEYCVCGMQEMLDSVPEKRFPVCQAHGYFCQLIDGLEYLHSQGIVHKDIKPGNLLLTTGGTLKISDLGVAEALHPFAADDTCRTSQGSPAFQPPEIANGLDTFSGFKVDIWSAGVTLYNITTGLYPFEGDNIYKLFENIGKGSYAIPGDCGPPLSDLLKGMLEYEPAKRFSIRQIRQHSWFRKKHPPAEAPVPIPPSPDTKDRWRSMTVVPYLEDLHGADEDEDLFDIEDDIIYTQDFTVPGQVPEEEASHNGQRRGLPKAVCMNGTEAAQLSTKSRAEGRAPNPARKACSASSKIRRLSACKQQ
Chain of STK11 CAB39 STRADA (human) (Q7RTN6 whole entry, looked up): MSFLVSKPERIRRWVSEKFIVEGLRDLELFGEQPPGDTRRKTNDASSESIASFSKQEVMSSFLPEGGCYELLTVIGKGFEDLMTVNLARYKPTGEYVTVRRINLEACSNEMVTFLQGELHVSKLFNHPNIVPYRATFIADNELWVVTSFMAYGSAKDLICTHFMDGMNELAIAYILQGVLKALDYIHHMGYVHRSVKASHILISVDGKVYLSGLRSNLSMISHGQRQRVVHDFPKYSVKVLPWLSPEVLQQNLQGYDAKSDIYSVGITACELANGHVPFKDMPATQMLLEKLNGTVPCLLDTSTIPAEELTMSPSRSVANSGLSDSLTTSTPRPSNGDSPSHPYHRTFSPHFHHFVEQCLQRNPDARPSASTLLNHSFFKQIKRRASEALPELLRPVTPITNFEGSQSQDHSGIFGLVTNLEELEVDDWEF
Chain of STK11 CAB39 STRADA (human) (Q9Y376 whole entry, looked up): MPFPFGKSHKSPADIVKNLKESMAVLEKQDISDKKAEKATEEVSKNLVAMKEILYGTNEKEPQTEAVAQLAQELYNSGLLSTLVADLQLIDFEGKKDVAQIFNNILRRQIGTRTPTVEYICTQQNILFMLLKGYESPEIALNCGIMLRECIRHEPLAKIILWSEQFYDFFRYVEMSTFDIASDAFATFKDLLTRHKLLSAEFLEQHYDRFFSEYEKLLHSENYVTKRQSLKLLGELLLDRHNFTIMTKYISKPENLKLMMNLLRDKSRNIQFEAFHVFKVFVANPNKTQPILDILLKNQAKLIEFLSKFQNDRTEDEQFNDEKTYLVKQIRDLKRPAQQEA

STK33 (human) = STK33 (human) (UniProt Q9BYT3); conditions: compound 100.0 µM; ATP 50 µM
SYK (human) = SYK (human) (UniProt P43405); conditions: compound 100.0 µM; ATP 20 µM
TAOK1 (human) = TAOK1 (human) (UniProt Q7L7X3); conditions: compound 100.0 µM; ATP 20 µM
ZAP70 (human) = ZAP70 (human) (UniProt P43403); conditions: compound 100.0 µM; ATP 5 µM

SMILES: O=c1c(NC(=S)NCc2ccccc2)cnc2[nH]ccn12
- inhibition [1]: 31%
- inhibition (AURKB (human)): 0%
- inhibition (CLK2 (human)): 3%
- inhibition (CSK (human)): 26%
- inhibition (EEF2K (human)): 6%
- inhibition (EPHA2 (human)): 12%
- inhibition (EPHB2 (human)): 3%
- inhibition (EPHB3 (human)): 0%
- inhibition (EPHB4 (human)): 9%
- inhibition (FGFR1 (human)): 6%
- inhibition (FLT1 (human)): 28%
- inhibition (HIPK2 (human)): 0%
- inhibition (HIPK3 (human)): 0%
- inhibition (IGF1R (human)): 0%
- inhibition (IKBKE (human)): 0%
- inhibition (MAP3K11 (human)): 11%
- inhibition (MAPK1 (human)): 0%
- inhibition (MAPK10 (human)): 0%
- inhibition (MAPK11 (human)): 7%
- inhibition (MAPK12 (human)): 0%
- inhibition (MAPK3 (human)): 7%
- inhibition (MAPK8 (human)): 0%
- inhibition (MARK2 (human)): 0%
- inhibition (MARK3 (human)): 9%
- inhibition (MARK4 (human)): 21%
- inhibition (MELK (human)): 0%
- inhibition (MINK1 (human)): 0%
- inhibition (MST4 (human)): 0%
- inhibition (MYLK (human)): 0%
- inhibition (PHKG1 (human)): 24%
- inhibition (PRKCA (human)): 2%
- inhibition (PTK6 (human)): 31%
- inhibition (RPS6KA1 KD1 KD2 (human)): 17%
- inhibition [2]: 0%
- inhibition (SRPK1 (human)): 9%
- inhibition [3]: 0%
- inhibition (STK33 (human)): 13%
- inhibition (SYK (human)): 12%
- inhibition (TAOK1 (human)): 0%
- inhibition (ZAP70 (human)): 0%

SMILES: O=C(c1cccc(-c2cc3c(=O)[nH]cnc3s2)c1)N1CCOCC1
- inhibition [1]: 47%
- inhibition (AURKB (human)): 6%
- inhibition (CLK2 (human)): 46%
- inhibition (CSK (human)): 10%
- inhibition (EEF2K (human)): 39%
- inhibition (EPHA2 (human)): 37%
- inhibition (EPHB2 (human)): 27%
- inhibition (EPHB3 (human)): 6%
- inhibition (EPHB4 (human)): 0%
- inhibition (FGFR1 (human)): 57%
- inhibition (FLT1 (human)): 74%
- inhibition (HIPK2 (human)): 38%
- inhibition (HIPK3 (human)): 0%
- inhibition (IGF1R (human)): 0%
- inhibition (IKBKE (human)): 36%
- inhibition (MAP3K11 (human)): 23%
- inhibition (MAPK1 (human)): 1%
- inhibition (MAPK10 (human)): 7%
- inhibition (MAPK11 (human)): 15%
- inhibition (MAPK12 (human)): 0%
- inhibition (MAPK3 (human)): 19%
- inhibition (MAPK8 (human)): 8%
- inhibition (MARK2 (human)): 0%
- inhibition (MARK3 (human)): 29%
- inhibition (MARK4 (human)): 0%
- inhibition (MELK (human)): 25%
- inhibition (MINK1 (human)): 40%
- inhibition (MST4 (human)): 12%
- inhibition (MYLK (human)): 8%
- inhibition (PHKG1 (human)): 9%
- inhibition (PRKCA (human)): 21%
- inhibition (PTK6 (human)): 50%
- inhibition (RPS6KA1 KD1 KD2 (human)): 47%
- inhibition [2]: 14%
- inhibition (SRPK1 (human)): 19%
- inhibition [3]: 0%
- inhibition (STK33 (human)): 0%
- inhibition (SYK (human)): 0%
- inhibition (TAOK1 (human)): 3%
- inhibition (ZAP70 (human)): 0%

SMILES: Nc1cnc2c(-c3c(F)cccc3F)cccn2c1=O
- inhibition [1]: 68%
- inhibition (AURKB (human)): 81%
- inhibition (CLK2 (human)): 91%
- inhibition (CSK (human)): 11%
- inhibition (EEF2K (human)): 16%
- inhibition (EPHA2 (human)): 33%
- inhibition (EPHB2 (human)): 29%
- inhibition (EPHB3 (human)): 42%
- inhibition (EPHB4 (human)): 39%
- inhibition (FGFR1 (human)): 88%
- inhibition (FLT1 (human)): 72%
- inhibition (HIPK2 (human)): 18%
- inhibition (HIPK3 (human)): 23%
- inhibition (IGF1R (human)): 85%
- inhibition (IKBKE (human)): 13%
- inhibition (MAP3K11 (human)): 63%
- inhibition (MAPK1 (human)): 13%
- inhibition (MAPK10 (human)): 33%
- inhibition (MAPK11 (human)): 13%
- inhibition (MAPK12 (human)): 17%
- inhibition (MAPK3 (human)): 23%
- inhibition (MAPK8 (human)): 41%
- inhibition (MARK2 (human)): 53%
- inhibition (MARK3 (human)): 86%
- inhibition (MARK4 (human)): 62%
- inhibition (MELK (human)): 43%
- inhibition (MINK1 (human)): 75%
- inhibition (MST4 (human)): 77%
- inhibition (MYLK (human)): 25%
- inhibition (PHKG1 (human)): 38%
- inhibition (PRKCA (human)): 36%
- inhibition (PTK6 (human)): 67%
- inhibition (RPS6KA1 KD1 KD2 (human)): 21%
- inhibition [2]: 0%
- inhibition (SRPK1 (human)): 58%
- inhibition [3]: 62%
- inhibition (STK33 (human)): 4%
- inhibition (SYK (human)): 30%
- inhibition (TAOK1 (human)): 82%
- inhibition (ZAP70 (human)): 1%

From the kinase profiling compilation of Christmann-Franck et al. (2016)
